Laboratory results reported in patent publication US20100267561A1, “HERBICIDAL PYRIDAZINONE DERIVATIVES” (priority 2007, published 2010).

Assays:
Test in all cases: Test C pre-/postemergence plant response
Assay type in all cases: in vivo
Conditions in all cases: Preemergence
[1] = test system: spring wheat (Triticum aestivum)
Text: (§1) Seeds of plant species selected from annual bluegrass (Poa annua), blackgrass (Alopecurus myosuroides), canola (Brassica rapa), downy bromegrass (Bromus tectorum), green foxtail (Setaria viridis), Italian ryegrass (Lolium multiflorum), canarygrass (Phalaris minor), pigweed (Amaranthus retroflexus), spring barley (Hordeum vulgare), spring wheat (Triticum aestivum), wild mustard (Sinapis arvensis), wild oat (Avena fatua), windgrass (Apera spica-venti), winter barley (Hordeum vulgare), and winter wheat (Triticum aestivum) were planted and treated preemergence with test chemicals formulated in a non-phytotoxic solvent mixture which included a surfactant. At the same time, plants selected from these crop and weed species were treated with postemergence applications of some of the test chemicals formulated in the same manner. Plants ranged in height from 2 to 18 cm (1- to 4-leaf stage) for postemergence treatments.
(§2) Treated plants and controls were maintained in a controlled growth environment for 15 to 25 days after which time all species were compared to controls and visually evaluated. Plant response ratings, summarized in Table C, are based on a scale of 0 to 100 where 0 is no effect and 100 is complete control. A dash (-) response means no test result.

[2] = test system: downy bromegrass (Bromus tectorum)
Text: as §1, §2

[3] = test system: blackgrass (Alopecurus myosuroides)
Text: as §1, §2

[4] = test system: wild oat (Avena fatua)
Text: as §1, §2

[5] = test system: Italian ryegrass (Lolium multiflorum)
Text: as §1, §2

[6] = test system: winter barley (Hordeum vulgare)
Text: as §1, §2

[7] = test system: pigweed (Amaranthus retroflexus)
Text: as §1, §2

[8] = test system: annual bluegrass (Poa annua)
Text: as §1, §2

[9] = test system: winter wheat (Triticum aestivum)
Text: as §1, §2

[10] = test system: windgrass (Apera spica-venti)
Text: as §1, §2

[11] = test system: canarygrass (Phalaris minor)
Text: as §1, §2

[12] = test system: green foxtail (Setaria viridis)
Text: as §1, §2

[13] = test system: wild mustard (Sinapis arvensis)
Text: as §1, §2

[14] = test system: spring barley (Hordeum vulgare)
Text: as §1, §2

[15] = 8 g ai/ha, scale 0 to 100 (0 no effect, 100 complete control)
[16] = 16 g ai/ha, scale 0 to 100 (0 no effect, 100 complete control)
[17] = 31 g ai/ha, scale 0 to 100 (0 no effect, 100 complete control)
[18] = 62 g ai/ha, scale 0 to 100, 0 no effect, 100 complete control

Cc1cc(-c2ccc(Cl)cc2)nn1-c1c(OC(=O)Oc2ccccc2)cnn(C)c1=O [Compound 54]
Plant response rating, Wheat, Spring [1, 15]: 0
Plant response rating, Wheat, Spring [1, 16]: 25
Plant response rating, Wheat, Spring [1, 17]: 65
Plant response rating, Wheat, Spring [1, 18]: 98
Plant response rating, Bromegrass, Downy [2, 15]: 0
Plant response rating, Bromegrass, Downy [2, 16]: 0
Plant response rating, Bromegrass, Downy [2, 17]: 15
Plant response rating, Bromegrass, Downy [2, 18]: 80
Plant response rating, Blackgrass [3, 15]: 35
Plant response rating, Blackgrass [3, 16]: 70
Plant response rating, Blackgrass [3, 17]: 100
Plant response rating, Blackgrass [3, 18]: 100
Plant response rating, Oat, Wild [4, 15]: 0
Plant response rating, Oat, Wild [4, 16]: 0
Plant response rating, Oat, Wild [4, 17]: 40
Plant response rating, Oat, Wild [4, 18]: 70
Plant response rating, Ryegrass, Italian [5, 15]: 0
Plant response rating, Ryegrass, Italian [5, 16]: 20
Plant response rating, Ryegrass, Italian [5, 17]: 100
Plant response rating, Ryegrass, Italian [5, 18]: 100
Plant response rating, Barley, Winter [6, 15]: 0
Plant response rating, Barley, Winter [6, 16]: 10
Plant response rating, Barley, Winter [6, 17]: 15
Plant response rating, Barley, Winter [6, 18]: 75
Plant response rating, Pigweed [7, 15]: 0
Plant response rating, Pigweed [7, 16]: 0
Plant response rating, Pigweed [7, 17]: 0
Plant response rating, Pigweed [7, 18]: 0
Plant response rating, Bluegrass [8, 15]: 0
Plant response rating, Bluegrass [8, 16]: 0
Plant response rating, Bluegrass [8, 17]: 0
Plant response rating, Bluegrass [8, 18]: 25
Plant response rating, Wheat, Winter [9, 15]: 0
Plant response rating, Wheat, Winter [9, 16]: 0
Plant response rating, Wheat, Winter [9, 17]: 35
Plant response rating, Wheat, Winter [9, 18]: 50
Plant response rating, Windgrass [10, 15]: 0
Plant response rating, Windgrass [10, 16]: 0
Plant response rating, Windgrass [10, 17]: 60
Plant response rating, Windgrass [10, 18]: 75
Plant response rating, Canarygrass [11, 15]: 0
Plant response rating, Canarygrass [11, 16]: 70
Plant response rating, Canarygrass [11, 17]: 80
Plant response rating, Canarygrass [11, 18]: 95
Plant response rating, Foxtail, Green [12, 15]: 40
Plant response rating, Foxtail, Green [12, 16]: 98
Plant response rating, Foxtail, Green [12, 17]: 100
Plant response rating, Foxtail, Green [12, 18]: 100
Plant response rating, Mustard, Wild [13, 16]: 0
Plant response rating, Mustard, Wild [13, 17]: 0
Plant response rating, Mustard, Wild [13, 18]: 0
Plant response rating, Barley, Spring [14, 15]: 0
Plant response rating, Barley, Spring [14, 16]: 0
Plant response rating, Barley, Spring [14, 17]: 25
Plant response rating, Barley, Spring [14, 18]: 70

Cc1cc(-c2ccc(Cl)cc2)nn1-c1c(OS(=O)(=O)c2ccccc2)cnn(C)c1=O [Compound 35]
Plant response rating, Wheat, Spring [1, 15]: 0
Plant response rating, Wheat, Spring [1, 16]: 20
Plant response rating, Wheat, Spring [1, 17]: 50
Plant response rating, Wheat, Spring [1, 18]: 65
Plant response rating, Bromegrass, Downy [2, 15]: 0
Plant response rating, Bromegrass, Downy [2, 16]: 0
Plant response rating, Bromegrass, Downy [2, 17]: 50
Plant response rating, Bromegrass, Downy [2, 18]: 60
Plant response rating, Blackgrass [3, 15]: 0
Plant response rating, Blackgrass [3, 16]: 30
Plant response rating, Blackgrass [3, 17]: 75
Plant response rating, Blackgrass [3, 18]: 75
Plant response rating, Oat, Wild [4, 15]: 0
Plant response rating, Oat, Wild [4, 16]: 0
Plant response rating, Oat, Wild [4, 17]: 30
Plant response rating, Oat, Wild [4, 18]: 70
Plant response rating, Ryegrass, Italian [5, 15]: 0
Plant response rating, Ryegrass, Italian [5, 16]: 35
Plant response rating, Ryegrass, Italian [5, 17]: 98
Plant response rating, Ryegrass, Italian [5, 18]: 100
Plant response rating, Barley, Winter [6, 15]: 0
Plant response rating, Barley, Winter [6, 17]: 0
Plant response rating, Barley, Winter [6, 18]: 50
Plant response rating, Pigweed [7, 15]: 0
Plant response rating, Pigweed [7, 17]: 0
Plant response rating, Pigweed [7, 18]: 0
Plant response rating, Bluegrass [8, 15]: 0
Plant response rating, Bluegrass [8, 16]: 0
Plant response rating, Bluegrass [8, 17]: 0
Plant response rating, Bluegrass [8, 18]: 0
Plant response rating, Wheat, Winter [9, 15]: 0
Plant response rating, Wheat, Winter [9, 16]: 10
Plant response rating, Wheat, Winter [9, 17]: 25
Plant response rating, Wheat, Winter [9, 18]: 70
Plant response rating, Windgrass [10, 15]: 0
Plant response rating, Windgrass [10, 17]: 15
Plant response rating, Windgrass [10, 18]: 80
Plant response rating, Canarygrass [11, 15]: 0
Plant response rating, Canarygrass [11, 16]: 0
Plant response rating, Canarygrass [11, 17]: 50
Plant response rating, Canarygrass [11, 18]: 90
Plant response rating, Foxtail, Green [12, 15]: 15
Plant response rating, Foxtail, Green [12, 17]: 40
Plant response rating, Foxtail, Green [12, 18]: 100
Plant response rating, Mustard, Wild [13, 17]: 0
Plant response rating, Mustard, Wild [13, 18]: 0
Plant response rating, Barley, Spring [14, 15]: 0
Plant response rating, Barley, Spring [14, 16]: 0
Plant response rating, Barley, Spring [14, 17]: 20
Plant response rating, Barley, Spring [14, 18]: 65
